For series [1], the system named is human peripheral blood mononuclear cells (PBMC). Briefly: PBMC cytotoxicity assay (CellTiter-Glo). The format is cell-based. The note with it: pCC50, CellTiter-Glo, stimulated human PBMC, 2 days. On the procedure: (§1) Compounds of the present invention were tested via high-throughput cellular assays utilizing detection of kynurenine via mass spectrometry and cytotoxicity as end-points. For the mass spectrometry and cytotoxicity assays, human peripheral blood mononuclear cells (PBMC) (PB003F; AllCells®, Alameda, Calif.) were stimulated with human interferon-γ (IFN-γ) (Sigma-Aldrich Corporation, St. Louis, Mo.) and lipopolysaccharide from Salmonella minnesota (LPS) (Invivogen, San Diego, Calif.) to induce the expression of indoleamine 2, 3-dioxygenase (IDO1). Compounds with IDO1 inhibitory properties decreased the amount of kynurenine produced by the cells via the tryptophan catabolic pathway. Cellular toxicity due to the effect of compound treatment was measured using CellTiter-Glo® reagent (CTG) (Promega Corporation, Madison, Wis.), which is based on luminescent detection of ATP, an indicator of metabolically active cells.
(§2) In preparation for the assays, test compounds were serially diluted 3-fold in
(§3) DMSO from a typical top concentration of 1 mM or 5 mM and plated at 0.5 μL in 384-well, polystyrene, clear bottom, tissue culture treated plates with lids (Greiner Bio-One, Kremsmünster, Austria) to generate 11-point dose response curves. Low control wells (0% kynurenine or 100% cytotoxicity) contained either 0.5 μL of DMSO in the presence of unstimulated (−IFN-γ/−LPS) PBMCs for the mass spectrometry assay or 0.5 μL of DMSO in the absence of cells for the cytotoxicity assay, and high control wells (100% kynurenine or 0% cytotoxicity) contained 0.5 μL of DMSO in the presence of stimulated (+IFN-γ/+LPS) PBMCs for both the mass spectrometry and cytotoxicity assays.
(§4) Frozen stocks of PBMCs were washed and recovered in RPMI 1640 medium (Thermo Fisher Scientific, Inc., Waltham, Mass.) supplemented with 10% v/v heat-inactivated fetal bovine serum (FBS) (Thermo Fisher Scientific, Inc., Waltham, Mass.), and 1× penicillin-streptomycin antibiotic solution (Thermo Fisher Scientific, Inc., Waltham, Mass.). The cells were diluted to 1,000,000 cells/mL in the supplemented RPMI 1640 medium. 50 μL of either the cell suspension, for the mass spectrometry assay, or medium alone, for the cytotoxicity assay, were added to the low control wells, on the previously prepared 384-well compound plates, resulting in 50,000 cells/well or 0 cells/well respectively. IFN- y and LPS were added to the remaining cell suspension at final concentrations of 100 ng/ml and 50 ng/ml respectively, and 50 μL of the stimulated cells were added to all remaining wells on the 384-well compound plates. The plates, with lids, were then placed in a 37 °C, 5% CO2 humidified incubator for 2 days.
(§5) Following incubation, the 384-well plates were removed from the incubator and allowed to equilibrate to room temperature for 30 minutes. For the cytotoxicity assay, CellTiter-Glo® was prepared according to the manufacturer's instructions, and 40 μL were added to each plate well. After a twenty minute incubation at room temperature, luminescence was read on an EnVision® Multilabel Reader (Perkin Elmer Inc., Waltham, Mass.). For the mass spectrometry assay, 10 μL of supernatant from each well of the compound-treated plates were added to 40 μL of acetonitrile, containing 10 μM of an internal standard for normalization, in 384-well, polypropylene, V-bottom plates (Greiner Bio-One, Kremsmunster, Austria) to extract the organic analytes. Following centrifugation at 2000 rpm for 10 minutes, 10 μL from each well of the acetonitrile extraction plates were added to 90 μL of sterile, distilled H2O in 384-well, polypropylene, V-bottom plates for analysis of kynurenine and the internal standard on the RapidFire 300 (Agilent Technologies, Santa Clara, Calif.) and 4000 QTRAP MS (SCIEX, Framingham, Mass.). MS data were integrated using Agilent Technologies' RapidFire Integrator software, and data were normalized for analysis as a ratio of kynurenine to the internal standard. […]
On the technique in general: Cellular ATP, detected with luciferase, serves as a proxy for viable cell number.

Series [2] has as its target T1, indoleamine 2, 3-dioxygenase (IDO1) (Homo sapiens, UniProt P14902).
T1 construct: to induce the expression of indoleamine 2, 3-dioxygenase (IDO1); host or cells: human PBMC stimulated with IFN-gamma and LPS
Put plainly: IDO1 PBMC RapidFire MS assay (kynurenine detection). The note with it: IFN-γ/LPS stimulated human PBMC, kynurenine by MS, 2 days; read-out: PBMC PXC50 (converted). The format is cell-based. On the procedure:
as §1, §2, §3, §4, §5

Series [3] in a line: Rat oral PK studies of prodrugs at 5 mg/kg. Particulars: analyte as labelled. The format is in vivo. On the procedure: Rat oral PK studies of prodrugs at 5 mg/kg dose (solution in 100% (40 mg oleic acid+25mg Tween 80+2 mL of PBS/fresh) at 0.5 mg/mL).
Where [4] appears, read: after PO dose of 5 mg/kg example 6 in male Wistar Han rat.

T1 sequence (P14902 whole entry): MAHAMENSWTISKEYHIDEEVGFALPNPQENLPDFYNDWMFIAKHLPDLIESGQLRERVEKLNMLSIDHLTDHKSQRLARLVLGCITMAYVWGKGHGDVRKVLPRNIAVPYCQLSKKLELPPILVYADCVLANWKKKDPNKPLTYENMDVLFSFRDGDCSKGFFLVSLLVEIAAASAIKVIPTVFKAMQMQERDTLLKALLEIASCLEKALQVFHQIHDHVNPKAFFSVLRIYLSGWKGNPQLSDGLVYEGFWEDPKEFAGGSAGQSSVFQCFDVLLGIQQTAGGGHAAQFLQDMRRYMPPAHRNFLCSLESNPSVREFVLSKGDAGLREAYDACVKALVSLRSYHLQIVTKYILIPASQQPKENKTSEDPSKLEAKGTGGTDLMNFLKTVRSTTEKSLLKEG

For `CCCCCCCCCCCCCCCC(=O)OCC(COC(=O)CCCCCCCCCCCCCCC)OC(=O)CCCC(=O)O[C@H]1CC[C@H](N(CC(C)C)c2ccc([C@H](C)CC(=O)O)cc2Nc2ccc(Cl)nc2)CC1` [example 1, (R)-3-(4-((trans-4-((5-((1,3-bis(palmitoyloxy)propan-2-yl)oxy)-5-oxopentanoyl)oxy)cyclohexyl) (isobutyl)amino)-3-((6-chloropyridin-3-yl)amino)phenyl)butanoic acid], the “PBMC TOX PXC50” value in series [1] was below 5. In addition, in series [2], the IC50 was 158 nM.
In the case of `CCCCCCCCCCCCCCCC(=O)OCC(COC(=O)CCCCCCCCCCCCCCC)OC(=O)CCCC(=O)O[C@H]1CC[C@H](N(CC(C)C)c2ccc([C@H](C)CC(=O)O)cc2Nc2cnc(Cl)cn2)CC1` [example 2, (R)-3-(4-((trans-4-((5-((1,3-bis(palmitoyloxy)propan-2-yl)oxy)-5-oxopentanoyl)oxy)cyclohexyl) (isobutyl)amino)-3-((5-chloropyrazin-2-yl)amino)phenyl)butanoic acid], the DNAUC0_20 result in series [3] (after PO dose of 5 mg/kg example 2 in male Wistar Han rat) is listed as “not detected”. Moreover, the “PBMC TOX PXC50” value in series [1] is listed as below 5. Moreover, in series [2], the IC50 is 251 nM.
Consider `CCCCCCCCCCCCCCCC(=O)OCC(COC(=O)CCCCCCCCCCCCCCC)OC(=O)CC(C)CC(=O)O[C@H]1CC[C@H](N(CC(C)C)c2ccc([C@H](C)CC(=O)O)cc2Nc2ccc(Cl)nc2)CC1` (stereo partly drawn) [example 3, (3R)-3-(4-((trans-4-((5-((1,3-bis(palmitoyloxy)propan-2-yl)oxy)-3-methyl-5-oxopentanoyl)oxy)cyclohexyl) (isobutyl)amino)-3-((6-chloropyridin-3-yl)amino)phenyl)butanoic acid], for which the “PBMC TOX PXC50” value in series [1] was below 5. Besides, the IC50 in series [2] was 1260 nM.
As to `CCCCCCCCCCCCCCCC(=O)OCC(COC(=O)CCCCCCCCCCCCCCC)OC(=O)CC(C)CC(=O)O[C@H]1CC[C@H](N(CC(C)C)c2ccc([C@H](C)CC(=O)O)cc2Nc2cnc(Cl)cn2)CC1` (stereo partly drawn) [example 4, (3R)-3-(4-((trans-4-((5-((1,3-bis(palmitoyloxy)propan-2-yl)oxy)-3-methyl-5-oxopentanoyl)oxy)cyclohexyl) (isobutyl)amino)-3-((5-chloropyrazin-2-yl)amino)phenyl)butanoic acid], in series [1], the “PBMC TOX PXC50” value is reported as below 5. Moreover, the IC50 in series [2] was 7940 nM.
`CCCCCCCCCCCCCCCC(=O)OCC(COC(=O)CCCCCCCCCCCCCCC)OC(=O)CC(C)CC(=O)Oc1cc(C)cc(C)c1C(C)(C)CC(=O)O[C@H]1CC[C@H](N(CC(C)C)c2ccc([C@H](C)CC(=O)O)cc2Nc2cnc(Cl)cn2)CC1` (stereo partly drawn) [example 5, (3R)-3-(4-((trans-4-((3-(2-((5-((1,3-bis(palmitoyloxy)propan-2-yl)oxy)-3-methyl-5-oxopentanoyl)oxy)-4,6-dimethylphenyl)-3-methylbutanoyl)oxy)cyclohexyl)(isobutyl)amino)-3-((5-chloropyrazin-2-yl)amino)phenyl)butanoic acid]: the DNAUC0_20 entry in series [3] (after PO dose of 5 mg/kg example 5 in male Wistar Han rat) is on record as “not detected”. In series [1], the “PBMC TOX PXC50” value is given as below 5. Moreover, the IC50 in series [2] is 631 nM.
For the molecule `CCCCCCCCCCCCCCCC(=O)OCC(COC(=O)CCCCCCCCCCCCCCC)OC(=O)CC(C)CC(=O)OCOC(=O)C[C@@H](C)c1ccc(N(CC(C)C)C2CCOCC2)c(Nc2ccc(Cl)nc2)c1` (stereo partly drawn) [example 6, 1-(1,3-bis(palmitoyloxy)propan-2-yl) 5-((((R)-3-(3-((6-chloropyridin-3-yl)amino)-4-(isobutyl(tetrahydro-2H-pyran-4-yl)amino)phenyl)butanoyl)oxy)methyl) 3-methylpentanedioate], in series [3] (setting [4]), the DNAUC0_20 entry is recorded as “not detected”. Also, the “PBMC TOX PXC50” value in series [1] is given as below 5. The IC50 in series [2] was 3160 nM.
Turning to `CC(C)CN(c1ccc([C@H](C)CC(=O)O)cc1Nc1ccc(Cl)nc1)[C@H]1CC[C@H](O)CC1` [intermediate C2, (R)-3-(3-((6-chloropyridin-3-yl)amino)-4-(((1r,4R)-4 hydroxycyclohexyl)(isobutyl)amino)-phenyl)butanoic acid], in series [1], the “PBMC TOX PXC50” value is recorded as below 5.
Still for that read-out and setting: under `CC(C)CN(c1ccc([C@H](C)CC(=O)O)cc1Nc1cnc(Cl)cn1)[C@H]1CC[C@H](O)CC1` [intermediate C3] stands below 5.
In the case of `CC(C)CN(c1ccc([C@H](C)CC(=O)O)cc1Nc1ccc(Cl)nc1)C1CCOCC1` [intermediate C5], the DNAUC0_20 in series [3] (setting [4]) was determined as 75 ng·h/mL. Besides, the “PBMC TOX PXC50” value in series [1] is recorded as below 5.

These data come from patent US20210186960A1, “MODULATORS OF INDOLEAMINE 2,3-DIOXYGENASE” (GLAXOSMITHKLINE INTELLECTUAL PROPERTY DEVELOPMENT LIMITED, priority 2017, published 2021).
